Results reported in paper PMC10289903 (Investigational New Drugs, 2023).
Where two headings read alike, the source gives them in different places.

System: patients with locally advanced or metastatic solid tumors
From the text: This was a Phase Ib, multicenter, open-label, dose-finding clinical trial (NCT02610075). […] Three types of treatment schedules were investigated: cohorts bid 1, bid 2, qd 1.1, qd 2.1 and qd 3.1 received bid or qd treatment on a 5/9 schedule (5 days on treatment, followed by 9 days off) on a 14-day cycle. Cohorts qd 1.2, qd 2.2, and qd 3.2 received treatment on a 5/2 schedule (5 days on followed by 2 days off for 2 of 3 weeks) in a 21-day cycle. Cohorts qd 2.3 and qd 3.3 received treatment on a weekly 5/2 schedule in a 21-day cycle (Table 1). The highest dose level(s) at which less than one-third of evaluable patients (none of 3 patients or 1 of 6 patients) experienced a dose-limiting toxicity (DLT) was declared the MTD.
The per protocol analysis set was defined as a subset of the full analysis set, excluding subjects having an important protocol deviation, to be used for analyses of efficacy endpoints if appropriate.

C=CCn1c(=O)c2cnc(Nc3ccc(N4CCN(C)CC4)cc3)nc2n1-c1cccc(C(C)(C)O)n1 [adavosertib, Adavosertib]
13 (21.0) n (%): Back pain (treatment-emergent AE) (human, in vivo)
17 (27.4%) n (%): AEs leading to dose reductions, patients (human, in vivo)
10 (16.1) n (%): Asthenia (treatment-emergent AE) (human, in vivo) | Neutropenia (treatment-emergent AE) (human, in vivo) | Pyrexia (treatment-emergent AE) (human, in vivo) | Thrombocytopenia (treatment-emergent AE) (human, in vivo) | Thrombocytopenia (treatment-related AE) (human, in vivo)
6 (100) n (%): Any AE (treatment-emergent) (bid 2: 150 mg bid 5/9 (n=6)) | Any treatment-related AE (bid 2: 150 mg bid 5/9 (n=6))
25 (40.3%) n (%): AEs leading to dose interruptions, patients (human, in vivo) | Patients with serious AEs (human, in vivo)
5 (83.3) n (%): Any grade ≥ 3 AE (bid 2: 150 mg bid 5/9 (n=6)) | Diarrhea (treatment-emergent AE) (bid 2: 150 mg bid 5/9 (n=6)) | Diarrhea (treatment-related AE) (bid 2: 150 mg bid 5/9 (n=6)) | Fatigue (treatment-emergent AE) (bid 2: 150 mg bid 5/9 (n=6))
1 (20.0) n (%): Abdominal pain (treatment-emergent AE) (qd 1.1: 200 mg qd 5/9 (n=5)) | Any grade ≥ 3 AE (qd 1.1: 200 mg qd 5/9 (n=5)) | Any treatment-related grade ≥ 3 AE (qd 1.1: 200 mg qd 5/9 (n=5)) | Constipation (treatment-emergent AE) (qd 1.1: 200 mg qd 5/9 (n=5)) | Constipation (treatment-related AE) (qd 1.1: 200 mg qd 5/9 (n=5)) | Diarrhea (treatment-emergent AE) (qd 1.1: 200 mg qd 5/9 (n=5)) | Diarrhea (treatment-related AE) (qd 1.1: 200 mg qd 5/9 (n=5))
16 (25.8) n (%): Anemia (treatment-emergent AE) (human, in vivo) | Edema peripheral (treatment-emergent AE) (human, in vivo) | Vomiting (treatment-emergent AE) (human, in vivo)
14 (22.6) n (%): Decreased appetite (treatment-emergent AE) (human, in vivo) | Dizziness (treatment-emergent AE) (human, in vivo) | Vomiting (treatment-related AE) (human, in vivo)
8 (12.9) n (%): Alanine aminotransferase increased (treatment-emergent AE) (human, in vivo) | Dyspepsia (treatment-emergent AE) (human, in vivo) | Headache (treatment-emergent AE) (human, in vivo) | Muscle spasms (treatment-emergent AE) (human, in vivo)
1 [1.6%] n [%]: Treatment-related SAE: thrombocytopenia (all cohorts (N=62)) | Treatment-related SAE: anemia (human, in vivo) | Treatment-related SAE: febrile neutropenia (human, in vivo)
4 (6.5%) n (%): AEs leading to treatment discontinuation, patients (human, in vivo) | Dehydration leading to dose interruption, patients (human, in vivo) | Diarrhea leading to dose interruption, patients (human, in vivo) | Fatigue leading to dose interruption, patients (human, in vivo) | Neutropenia leading to dose reduction, patients (human, in vivo) | Thrombocytopenia leading to dose interruption, patients (human, in vivo)
2 (33.3) n (%): Back pain (treatment-emergent AE) (bid 2: 150 mg bid 5/9 (n=6)) | Constipation (treatment-emergent AE) (bid 2: 150 mg bid 5/9 (n=6)) | Decreased appetite (treatment-emergent AE) (bid 2: 150 mg bid 5/9 (n=6)) | Decreased appetite (treatment-related AE) (bid 2: 150 mg bid 5/9 (n=6)) | Dyspnea (treatment-emergent AE) (bid 2: 150 mg bid 5/9 (n=6)) | Neutropenia (treatment-emergent AE) (bid 2: 150 mg bid 5/9 (n=6)) | Neutropenia (treatment-related AE) (bid 2: 150 mg bid 5/9 (n=6)) | Pyrexia (treatment-emergent AE) (bid 2: 150 mg bid 5/9 (n=6)) | Vomiting (treatment-emergent AE) (bid 2: 150 mg bid 5/9 (n=6)) | Vomiting (treatment-related AE) (bid 2: 150 mg bid 5/9 (n=6))
Fifty: Number of serious AEs (SAEs) reported (in vivo)
12 (19.4) n (%): Myalgia (treatment-emergent AE) (human, in vivo)
2 [3.2%] n [%]: Treatment-related SAE: pneumonia (all cohorts (N=62)) | Treatment-related SAE: dehydration (human, in vivo)
2 (40.0) n (%): Alanine aminotransferase increased (treatment-emergent AE) (qd 1.1: 200 mg qd 5/9 (n=5)) | Asthenia (treatment-emergent AE) (qd 1.1: 200 mg qd 5/9 (n=5)) | Asthenia (treatment-related AE) (qd 1.1: 200 mg qd 5/9 (n=5))
10: Number of treatment-related serious AEs (human, in vivo)
9 (14.5) n (%): Cough (treatment-emergent AE) (human, in vivo) | Dyspnea (treatment-emergent AE) (human, in vivo) | Fall (treatment-emergent AE) (human, in vivo) | Myalgia (treatment-related AE) (human, in vivo) | Neutropenia (treatment-related AE) (human, in vivo) | Urinary tract infection (treatment-emergent AE) (human, in vivo)
1 (16.7) n (%): Abdominal pain (treatment-emergent AE) (bid 2: 150 mg bid 5/9 (n=6)) | Anemia (treatment-emergent AE) (bid 2: 150 mg bid 5/9 (n=6)) | Anemia (treatment-related AE) (bid 2: 150 mg bid 5/9 (n=6)) | Asthenia (treatment-emergent AE) (bid 2: 150 mg bid 5/9 (n=6)) | Constipation (treatment-related AE) (bid 2: 150 mg bid 5/9 (n=6)) | Cough (treatment-emergent AE) (bid 2: 150 mg bid 5/9 (n=6)) | Dizziness (treatment-emergent AE) (bid 2: 150 mg bid 5/9 (n=6)) | Dyspepsia (treatment-emergent AE) (bid 2: 150 mg bid 5/9 (n=6)) | Dyspepsia (treatment-related AE) (bid 2: 150 mg bid 5/9 (n=6)) | Edema peripheral (treatment-emergent AE) (bid 2: 150 mg bid 5/9 (n=6)) | Fall (treatment-emergent AE) (bid 2: 150 mg bid 5/9 (n=6)) | Headache (treatment-emergent AE) (bid 2: 150 mg bid 5/9 (n=6)) | Hypokalemia (treatment-emergent AE) (bid 2: 150 mg bid 5/9 (n=6)) | Insomnia (treatment-emergent AE) (bid 2: 150 mg bid 5/9 (n=6)) | Urinary tract infection (treatment-emergent AE) (bid 2: 150 mg bid 5/9 (n=6))
5 (100) n (%): Any AE (treatment-emergent) (qd 1.1: 200 mg qd 5/9 (n=5)) | Any treatment-related AE (qd 1.1: 200 mg qd 5/9 (n=5))
one: Deaths attributed to disease progression and an SAE of treatment-unrelated grade 5 sepsis, patients (cohort qd 3.3)
11 (17.7) n (%): Anemia (treatment-related AE) (human, in vivo) | Decreased appetite (treatment-related AE) (human, in vivo) | Dehydration (treatment-related AE) (human, in vivo) | Hypokalemia (treatment-emergent AE) (human, in vivo)
5 (8.1%) n (%): Thrombocytopenia leading to dose reduction, patients (human, in vivo)
4 (66.7) n (%): Dehydration (treatment-emergent AE) (bid 2: 150 mg bid 5/9 (n=6)) | Dehydration (treatment-related AE) (bid 2: 150 mg bid 5/9 (n=6)) | Fatigue (treatment-related AE) (bid 2: 150 mg bid 5/9 (n=6))
3 (50.0) n (%): Any treatment-related grade ≥ 3 AE (bid 2: 150 mg bid 5/9 (n=6)) | Nausea (treatment-emergent AE) (bid 2: 150 mg bid 5/9 (n=6)) | Nausea (treatment-related AE) (bid 2: 150 mg bid 5/9 (n=6))
0 n (%): Abdominal pain (treatment-related AE) (bid 2: 150 mg bid 5/9 (n=6)) | Alanine aminotransferase increased (treatment-emergent AE) (bid 2: 150 mg bid 5/9 (n=6)) | Asthenia (treatment-related AE) (bid 2: 150 mg bid 5/9 (n=6)) | Muscle spasms (treatment-emergent AE) (bid 2: 150 mg bid 5/9 (n=6)) | Myalgia (treatment-emergent AE) (bid 2: 150 mg bid 5/9 (n=6)) | Myalgia (treatment-related AE) (bid 2: 150 mg bid 5/9 (n=6)) | Pneumonia (treatment-emergent AE) (bid 2: 150 mg bid 5/9 (n=6)) | Rash (treatment-emergent AE) (bid 2: 150 mg bid 5/9 (n=6)) | Thrombocytopenia (treatment-emergent AE) (bid 2: 150 mg bid 5/9 (n=6)) | Thrombocytopenia (treatment-related AE) (bid 2: 150 mg bid 5/9 (n=6)) | Abdominal pain (treatment-related AE) (qd 1.1: 200 mg qd 5/9 (n=5)) | Anemia (treatment-emergent AE) (qd 1.1: 200 mg qd 5/9 (n=5)) | Anemia (treatment-related AE) (qd 1.1: 200 mg qd 5/9 (n=5)) | Back pain (treatment-emergent AE) (qd 1.1: 200 mg qd 5/9 (n=5)) | Cough (treatment-emergent AE) (qd 1.1: 200 mg qd 5/9 (n=5)) | Decreased appetite (treatment-emergent AE) (qd 1.1: 200 mg qd 5/9 (n=5)) | Decreased appetite (treatment-related AE) (qd 1.1: 200 mg qd 5/9 (n=5)) | Dehydration (treatment-emergent AE) (qd 1.1: 200 mg qd 5/9 (n=5)) | Dehydration (treatment-related AE) (qd 1.1: 200 mg qd 5/9 (n=5))
15 (24.2) n (%): Abdominal pain (treatment-emergent AE) (human, in vivo) | Constipation (treatment-emergent AE) (human, in vivo)
